Reference: paper PMC7463460, “Structure and Antiparasitic Activity Relationship of Alkylphosphocholine Analogues against Leishmania donovani” (Microorganisms, 2020)
Values joined by “and” are separate entries in the source; they are usually repeats but may differ in a detail not shown here. Equal entries are not always repeated.

Columns and labels:
L. donovani strain LV82 = test: Murine VL model, parasite burdens in spleen, liver and bone marrow; format: in vivo, Leishmania donovani in BALB/c mice
Method: BALB/c mice were infected by intravenous injection (tail vein, no anesthetic) with 1–2 × 10^7 L. donovani strain LV82 amastigote parasites, obtained from the spleen of an infected hamster. Mice (n = 4/treatment) were treated with PBS pH 7.4 (controls) or APC12 (40 or 80 mg/kg) by intravenous injection (tail vein, no anesthetic, 0.2 mL) on days 7 and 8 post-infection or a single oral dose on day 7 post-infection. Milt was not given orally at a dose of 80 mg/kg because of its potential toxicity. On day 14, parasite burdens in the liver, spleen and bone marrow were determined. Results are from duplicate experiments, however, if a treatment had no significant effect then it […] in subsequent experiments.

[1] = system: L. donovani 087/11 Milt-Sb-intermediate promastigotes; test: Promastigote luciferase assay, Milt-resistant 087/11; format: cell-based, Leishmania donovani; details: for IC50: Leishmania donovani, read-out: Mean IC50 Value Promastigotes; for Cross-Resistance Index (CRI50) Promast / Promast: Amast Ratio: strain 087/11, Milt-Sb-intermediate
Text: (§1) L. donovani cloned strains with different Sb susceptibility backgrounds were derived from isolates obtained from VL patients at the B.P. Koirala Institute of Health Sciences, Dharan, Nepal: MHOM/NP/02/BPK282/0cl4 (Sb sensitive, Sb-S). MHOM/NP/02/BPK087/0cl11 (Sb intermediate, Sb-I) and MHOM/NP/02/BPK275/0cl18 (Sb resistance, Sb-R [13]). In addition, Milt-resistant parasites raised against these three Sb sensitivity backgrounds and the Sb-sensitive strain (MHOM/ET/67:LV82) was also used in studies. Luciferase expressing promastigotes for the LV82 and Nepalese strains were prepared using previously published methods and the integrative construct (a gift from Dr D.F. Smith), designated pGL1313, contained pSSU-int fragments to facilitate integration into the ribosomal RNA locus of Leishmania.
The anti-leishmanial activity of APC against L. donovani luciferase-expressing promastigotes was determined by adding of the appropriate 100 µL parasite line (10^6 cells/mL) to the wells of a 96-well plate and adding 100 µL medium alone (controls) or 100 µL of APC compound (0.01 µg/mL–6.25 µg/mL, n = 3/treatment). […].
(§2) Luciferin solution (1 µg/mL in 20 µL medium without FCS) was added to the appropriate wells of the 96-well plate at the end of the experiment and the amount of light emitted/well was measured using a luminometer (Biotek Synergy HT, relative light units) using a wavelength/bandwidth of 440/40 nm, or IVIS® imaging (Spectrum Living Image system®, total flux, photons/sec).
(§3) The effect of drug treatment on parasite survival was determined by calculating the mean suppression in the light emitted from the drug-treated experimental sample compared to the mean control value and used to calculate the IC50 using Grafit® software (version 5.0, Erithacus Software, East Grinstead, West Sussex, UK). The effect of drug alone on the viability of uninfected macrophages was determined using the same experimental protocol above, but cell viability was determined using an alamar blue colorimetric assay. At the end of the incubation period, cells’ 10 µL resazurin solution (0.02% w/v) was added to control and drug treated cells and the absorbance of samples was read at 575 and 595 nm. The effect of drug treatment on cell survival, which correlates with the magnitude of dye reduction, was expressed as percentage viability (or alamar blue reduction) and determined using the formula provided in the manufacturer’s protocol % alamar blue reduction=(εoxλ)(Aλ1)−(εoxλ1)(Aλ2)/(εredλ1)(A^′λ2)−(εredλ2)(A^′λ1)x100
(§4) Cross resistance (CRI50) indexes were determined as Cross selectivity indices (CRI)=mean IC50 value for the relevant drug−resistant strain i.e., Sb−I or Sb−R / mean IC50 value drug−sensitive strain Sb−S

[2] = system: L. donovani 282/4 (Sb-sensitive) promastigotes; test: Promastigote luciferase assay, Sb-sensitive strain 282/4; format: cell-based, Leishmania donovani; details: strain 282/4, Sb-sensitive; for IC50: Leishmania donovani
Text: as §1
The anti-leishmanial activity of APC against L. donovani luciferase-expressing promastigotes was determined by adding of the appropriate 100 µL parasite line (10^6 cells/mL) to the wells of a 96-well plate and adding 100 µL medium alone (controls) or 100 µL of APC compound (0.01 µg/mL–6.25 µg/mL, n = 3/treatment). The plate was incubated for 72 h at 25 °C. In combination assays, the additional compound/compounds, at a final concentration of 0.195 or 0.39 µg/mL, was added to the initial APC being tested.
as §2, §3

[3] = system: L. donovani LV82 intracellular amastigotes; test: Intracellular amastigote assay in bone-marrow-derived macrophages, strain LV82; format: cell-based, Leishmania donovani; details: for IC50 / IC90: Leishmania donovani, Macrophage; for IC50: in Mus musculus, 72 h; for IC90: LV82; for Selectivity Index (SI50): macrophage CC50 / LV82 intracellular amastigote IC50
Method: In the macrophage studies, the method described in previous studies was used as follows. […] It is possible that intracellular macrophage parasites could have been at different developmental stages at 24 h post-infection. […] Therefore, we assumed that the effect of compounds on the amastigote stage rather than the promastigotes stage was determined in in vitro macrophage studies.
The plate was incubated for a further 24 h, the medium removed, and each well washed with PBS to eliminate non-internalized parasites, which were monitored microscopically. […] Wells with macrophage and with no drug or promastigotes added were used in control experiments.
as §2
as §3, with “At the end of the incubation period, cells’ 10 µL resazurin solution (0.02% w/v) was added to control and drug treated cells and the absorbance of samples was read at 575 and 595 nm.” left out

[4] = system: L. donovani 087/11 (Sb-intermediate) promastigotes; test: microbe, parasite or virus in culture; format: cell-based, Leishmania donovani; details: for IC50: Leishmania donovani, read-out: Mean IC50 Promastigotes; for Promast: Amast Ratio: strain 087/11, Sb-intermediate; for Cross-Resistance Index (CRI50) Promast: strain 087/11, Sb-intermediate vs Sb-S
Text: as §1, §2
as §3, with “At the end of the incubation period, cells’ 10 µL resazurin solution (0.02% w/v) was added to control and drug treated cells and the absorbance of samples was read at 575 and 595 nm.” left out
as §4

visceral leishmaniasis = details: VL monotherapy, Nepal, 12 months post-treatment; cited from earlier work
[5] = two-component population PK model; listed as Milt; cited from earlier work
[6] = 40 mg/kg IV, assessed day 14, Experiment 2
[7] = 40 mg/kg oral, day 7 post-infection, assessed day 14, Experiment 1
[8] = 80 mg/kg oral, assessed day 14, Experiment 2
[9] = LV82, intracellular in BALB/c macrophages, 3 days, 37 °C

SMILES | Mean Parasite Burden ± SD Bone Marrow (L. donovani strain LV82; [7]) | Mean Parasite Burden ± SD Liver (L. donovani strain LV82; [7]) | Mean Parasite Burden ± SD Spleen (L. donovani strain LV82; [7]) | mean percentage suppression ± SD in parasite burden, Bone Marrow (L. donovani strain LV82; [7]) [%] | mean percentage suppression ± SD in parasite burden, Liver (L. donovani strain LV82; [7]) [%] | mean percentage suppression ± SD in parasite burden, Spleen (L. donovani strain LV82; [7]) [%] | IC50 [1] | Cross-Resistance Index (CRI50) Promast [1] | Promast: Amast Ratio [1] | IC50 [2] | Promast: Amast Ratio [2] | IC50 [3, 9] | IC90 [3] [µg/mL] | Selectivity Index (SI50) [3] | IC50 [4] | Promast: Amast Ratio [4] | Cross-Resistance Index (CRI50) Promast [4] | also measured
CCCCCCCCCCCCOP(=O)([O-])OCC[N+](C)(C)C [APC12, dodecylphosphocholine] | 210 ± 90 | 880 ± 276 | 275 ± 96 | 54 ± 34 | 36 ± 34 | 8 ± 18 | 184 µg/mL and 520 µM | > 1.47 | 29.82 | 0.55 µg/mL and 1.56 µM | 2.09 | 0.009 µg/mL and 26 nM | 0.081 ± 0.01 | 3870.77 | 0.42 µg/mL and 1.19 µM | 2.11 | 0.76 | Mean Parasite Burden ± SD Bone Marrow (L. donovani strain LV82; [6]): 555 ± 254; Mean Parasite Burden ± SD Liver (L. donovani strain LV82; [6]): 434 ± 197; Mean Parasite Burden ± SD Spleen (L. donovani strain LV82; [6]): 112 ± 30; mean percentage suppression ± SD in parasite burden, Bone Marrow (L. donovani strain LV82; [6]): 8 ± 14%; mean percentage suppression ± SD in parasite burden, Liver (L. donovani strain LV82; [6]): 60 ± 11% and 60 ± 19%; mean percentage suppression ± SD in parasite burden, Spleen (L. donovani strain LV82; [6]): 60 ± 19% and 60 ± 11%; Mean Parasite Burden ± SD Bone Marrow (L. donovani strain LV82; [8]): 607 ± 115; Mean Parasite Burden ± SD Liver (L. donovani strain LV82; [8]): 939 ± 170; Mean Parasite Burden ± SD Spleen (L. donovani strain LV82; [8]): 257 ± 73; mean percentage suppression ± SD in parasite burden, Bone Marrow (L. donovani strain LV82; [8]): 2 ± 4%; mean percentage suppression ± SD in parasite burden, Liver (L. donovani strain LV82; [8]): 27 ± 16%; mean percentage suppression ± SD in parasite burden, Spleen (L. donovani strain LV82; [8]): 13 ± 27%; Amastigote mean IC50 [3, 9]: 0.01 ± 0.00 µg/mL; fold more active than Milt (APC16) ([3]; intracellular amastigotes): 4 fold
CCCCCCCCCCCCCCOP(=O)([O-])OCC[N+](C)(C)C [APC14, tetradecylphosphocholine] |  |  |  |  |  |  | 232 µg/mL and 630 µM | > 1.86 | 23.13 | 0.44 µg/mL and 1.16 µM | 3.64 | 0.03 µg/mL and 66 nM |  | 1632.58 | 0.21 µg/mL and 550 nM | 1.05 | 0.48 | 
CCCCCCCCCCCCCCCCOP(=O)([O-])OCC[N+](C)(C)C [APC16, hexadecylphosphocholine, reference compound] | 197 ± 157 | 433 ± 46 | 73 ± 68 | 30 ± 35 | 40 ± 25 | 53 ± 31 | 242 µg/mL and 560 µM |  | 19.13 | 0.84 µg/mL and 2.06 µM | 2.68 | 0.1 µg/mL and 250 nM | 0.9 ± 0.016 |  |  | 5.15 |  | relapse rate (visceral leishmaniasis): 20%; threshold concentration between non-saturable and saturable component [5]: 50 μM and 20.4 μg/mL
